Experiment [1] has as its target PI3Kδ (Homo sapiens (Human), UniProt O00329). In words: PI3Kδ enzyme activity inhibition IC50 evaluation assay. Particulars: luminescence, 25 μM ATP, 50 μM PIP2, 2 hrs room temperature. The format is biochemical. The method, boiled down:
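Enzyme was preincubated with compound dilutions at 1% DMSO final in 50 mM HEPES pH 7.5, 3 mM MgCl2, 1 mM EGTA, 100 mM NaCl, 0.03% CHAPS, 2 mM DTT. Activity was read by luminescence, and inhibition rate is the mean of two tests.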

Experiment [2] addresses PI3Kα (Homo sapiens (Human), UniProt P42336). In words: PI3Kα enzyme activity inhibition IC50 evaluation assay. Type of experiment: biochemical. The note with it: ratio PI3Kα vs PI3Kδ. The procedure, abridged:
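Enzymes were preincubated with compound (1% DMSO final) in HEPES pH 7.5 buffer with MgCl2, EGTA, NaCl, CHAPS and 2 mM DTT. Reaction started with 50 μM PIP2 and 25 μM ATP, 1 h at room temperature. Luminescence was read, with ADP-Glo detection reagent added for β and γ; inhibition is the mean of two tests.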

The target of experiment [3] is PI3Kβ (Homo sapiens (Human), UniProt P42338). In words: PI3Kβ enzyme activity inhibition IC50 evaluation assay. Type of experiment: biochemical. The note with it: ratio PI3Kβ vs PI3Kδ. Here is the method: (§1) PI3Kα, PI3Kδ, PI3Kβ and PI3Kγ Enzyme Activity Inhibition IC50 Evaluation Assay
(§2) • 1. Buffer preparation: 50 mM HEPES, pH 7.5, 3 mM MgCl2, 1 mM EGTA, 100 mM NaCl, 0.03% CHAPS. • 2. Compound was formulated in 100% DMSO in a concentration gradient, and added to a 384-well plate to a final DMSO concentration of 1%. • 3. PI3Kα, PI3Kδ, PI3Kβ and PI3Kγ enzymes were diluted to an optimum concentration with the following buffer: 50 mM HEPES, pH 7.5, 3 mM MgCl2, 1 mM EGTA, 100 mM NaCl, 0.03% CHAPS, 2 mM DTT, and transferred to a 384-well plate and incubated with the compound for a certain time. • 4. Substrate was diluted to an optimum concentration with the following buffer: 50 mM HEPES, pH 7.5, 3 mM MgCl2, 1 mM EGTA, 100 mM NaCl, 0.03% CHAPS, 2 mM DTT, 50 μM PIP2, 25 μM ATP; then added to a 384-well plate to initiate the reaction, and for PI3Kα, PI3Kβ and PI3Kγ at room temperature reacted for 1 hr, for PI3Kδ at room temperature reacted for 2 hrs. For PI3Kβ and PI3Kγ, it was still necessary to further add 10 μL ADP-Glo Detection Reagent, and then equilibrated at room temperature for 30 minutes. • 5. Read Luminescense with FlexStation, and calculate the inhibition rate as the average of two tests.

Experiment [4] has as its target PI3Kγ (Homo sapiens (Human), UniProt P48736). In words: PI3Kγ enzyme activity inhibition IC50 evaluation assay. Type of experiment: biochemical. The note with it: ratio PI3Kγ vs PI3Kδ. The procedure:
as §1, §2

Experiment [5] relates to Raji cells. In words: Inhibition of TNF-α generation of human Raji cell induced by human IgM. Type of experiment: cell-based. Particulars: 10 μg/ml IgM stimulation, 24 hrs, ELISA. Here is the method:
Screening Test for a Drug on Inhibiting TNF-α Generation of Human Raji Cell Induced by Human IgM
• 1. Raji cell lines (source of human Burkitt's lymphoma) were employed. • 2. 1×10^5/well Raji cells were plated onto a 96-well cell culture plate. • 3. Compounds to be screened were diluted to the corresponding test concentrations and added into the cell culture system 30 minutes before IgM stimulation. • 4. 10 μg/ml IgM monoclonal antibody was added into the cell culture system to stimulate the cells generating TNF-α. • 5. 24 hrs later, the amount of TNF-α generated by the cell system was measured by ELISA method. • 6.
Background: An ELISA detects its analyte on a solid surface through an enzyme-linked reagent.

The structures appear in SMILES notation.

Sequence of PI3Kα (P42336 whole entry): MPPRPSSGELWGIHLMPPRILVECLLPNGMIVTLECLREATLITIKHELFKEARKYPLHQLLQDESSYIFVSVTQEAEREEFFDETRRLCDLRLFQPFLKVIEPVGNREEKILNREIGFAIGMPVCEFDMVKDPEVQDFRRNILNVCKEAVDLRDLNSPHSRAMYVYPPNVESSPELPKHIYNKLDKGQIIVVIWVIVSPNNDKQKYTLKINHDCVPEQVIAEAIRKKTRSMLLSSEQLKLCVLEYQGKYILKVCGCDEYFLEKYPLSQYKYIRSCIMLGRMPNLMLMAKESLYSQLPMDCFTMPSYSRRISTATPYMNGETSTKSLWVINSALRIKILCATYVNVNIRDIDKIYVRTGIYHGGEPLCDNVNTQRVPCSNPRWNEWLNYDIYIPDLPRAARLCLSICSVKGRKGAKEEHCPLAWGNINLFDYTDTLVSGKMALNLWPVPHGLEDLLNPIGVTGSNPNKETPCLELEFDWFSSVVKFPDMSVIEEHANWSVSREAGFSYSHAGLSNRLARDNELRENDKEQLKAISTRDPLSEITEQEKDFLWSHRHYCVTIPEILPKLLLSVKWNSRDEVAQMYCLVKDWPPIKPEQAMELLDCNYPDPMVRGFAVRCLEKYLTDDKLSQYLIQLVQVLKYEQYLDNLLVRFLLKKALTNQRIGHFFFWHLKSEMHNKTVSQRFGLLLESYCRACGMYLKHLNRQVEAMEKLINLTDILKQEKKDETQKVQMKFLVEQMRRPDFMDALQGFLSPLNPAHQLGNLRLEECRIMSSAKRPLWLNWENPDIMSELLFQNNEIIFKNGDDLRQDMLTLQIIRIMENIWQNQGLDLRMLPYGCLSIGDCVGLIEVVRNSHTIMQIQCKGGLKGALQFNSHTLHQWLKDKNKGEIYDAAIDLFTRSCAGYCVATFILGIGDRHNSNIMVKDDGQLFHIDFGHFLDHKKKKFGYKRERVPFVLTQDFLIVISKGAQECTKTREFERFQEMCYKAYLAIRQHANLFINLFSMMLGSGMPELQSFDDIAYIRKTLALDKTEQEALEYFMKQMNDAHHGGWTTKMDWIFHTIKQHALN
Sequence of PI3Kα (P27986 whole entry partner): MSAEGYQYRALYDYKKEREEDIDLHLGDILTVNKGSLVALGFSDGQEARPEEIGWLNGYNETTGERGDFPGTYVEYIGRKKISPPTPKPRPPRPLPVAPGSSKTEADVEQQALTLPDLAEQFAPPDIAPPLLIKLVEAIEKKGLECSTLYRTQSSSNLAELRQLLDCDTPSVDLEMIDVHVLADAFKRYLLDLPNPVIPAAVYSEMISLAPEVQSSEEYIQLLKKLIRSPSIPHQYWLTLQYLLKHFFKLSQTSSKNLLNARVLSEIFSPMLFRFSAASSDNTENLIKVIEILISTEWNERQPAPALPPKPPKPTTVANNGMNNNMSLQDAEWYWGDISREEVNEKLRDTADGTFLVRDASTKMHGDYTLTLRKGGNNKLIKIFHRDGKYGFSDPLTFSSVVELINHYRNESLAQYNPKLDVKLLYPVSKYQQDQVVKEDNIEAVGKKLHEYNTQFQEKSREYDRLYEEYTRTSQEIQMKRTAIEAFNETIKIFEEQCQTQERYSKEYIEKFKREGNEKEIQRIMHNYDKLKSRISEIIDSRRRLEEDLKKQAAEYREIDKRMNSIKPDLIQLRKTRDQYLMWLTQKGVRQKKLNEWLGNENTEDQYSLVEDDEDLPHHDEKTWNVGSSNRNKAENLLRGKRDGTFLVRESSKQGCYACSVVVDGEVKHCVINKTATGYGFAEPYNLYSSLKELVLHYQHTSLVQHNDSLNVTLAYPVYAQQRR
Sequence of PI3Kδ (O00329 whole entry): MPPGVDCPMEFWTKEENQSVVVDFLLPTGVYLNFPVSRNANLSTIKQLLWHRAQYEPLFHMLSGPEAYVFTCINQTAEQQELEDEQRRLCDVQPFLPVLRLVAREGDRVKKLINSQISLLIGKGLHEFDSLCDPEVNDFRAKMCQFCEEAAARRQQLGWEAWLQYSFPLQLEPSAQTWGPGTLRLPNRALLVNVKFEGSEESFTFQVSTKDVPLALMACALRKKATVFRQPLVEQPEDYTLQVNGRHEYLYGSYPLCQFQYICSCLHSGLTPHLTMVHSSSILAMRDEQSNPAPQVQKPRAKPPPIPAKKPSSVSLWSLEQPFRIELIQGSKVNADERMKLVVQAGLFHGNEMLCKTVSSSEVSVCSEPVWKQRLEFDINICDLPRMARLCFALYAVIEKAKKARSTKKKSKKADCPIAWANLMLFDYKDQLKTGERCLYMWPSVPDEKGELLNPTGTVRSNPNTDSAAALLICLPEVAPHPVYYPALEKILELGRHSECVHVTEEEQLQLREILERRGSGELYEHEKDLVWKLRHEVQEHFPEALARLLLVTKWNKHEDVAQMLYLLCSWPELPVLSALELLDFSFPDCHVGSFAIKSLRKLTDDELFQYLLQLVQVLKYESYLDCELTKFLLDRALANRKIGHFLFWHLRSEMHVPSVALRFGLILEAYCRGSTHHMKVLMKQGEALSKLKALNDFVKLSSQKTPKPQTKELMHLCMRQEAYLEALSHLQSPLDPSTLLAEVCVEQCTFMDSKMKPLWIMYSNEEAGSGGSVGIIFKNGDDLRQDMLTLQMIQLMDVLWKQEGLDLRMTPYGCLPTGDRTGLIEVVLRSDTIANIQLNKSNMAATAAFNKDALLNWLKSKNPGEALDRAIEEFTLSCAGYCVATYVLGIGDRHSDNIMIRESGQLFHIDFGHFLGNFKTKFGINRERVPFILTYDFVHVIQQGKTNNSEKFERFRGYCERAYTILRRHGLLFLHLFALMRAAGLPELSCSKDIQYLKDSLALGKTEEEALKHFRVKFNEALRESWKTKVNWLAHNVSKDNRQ
Sequence of PI3Kδ (P27986 whole entry partner): as the sequence (P27986 whole entry partner) above
Sequence of PI3Kβ (P42338 whole entry): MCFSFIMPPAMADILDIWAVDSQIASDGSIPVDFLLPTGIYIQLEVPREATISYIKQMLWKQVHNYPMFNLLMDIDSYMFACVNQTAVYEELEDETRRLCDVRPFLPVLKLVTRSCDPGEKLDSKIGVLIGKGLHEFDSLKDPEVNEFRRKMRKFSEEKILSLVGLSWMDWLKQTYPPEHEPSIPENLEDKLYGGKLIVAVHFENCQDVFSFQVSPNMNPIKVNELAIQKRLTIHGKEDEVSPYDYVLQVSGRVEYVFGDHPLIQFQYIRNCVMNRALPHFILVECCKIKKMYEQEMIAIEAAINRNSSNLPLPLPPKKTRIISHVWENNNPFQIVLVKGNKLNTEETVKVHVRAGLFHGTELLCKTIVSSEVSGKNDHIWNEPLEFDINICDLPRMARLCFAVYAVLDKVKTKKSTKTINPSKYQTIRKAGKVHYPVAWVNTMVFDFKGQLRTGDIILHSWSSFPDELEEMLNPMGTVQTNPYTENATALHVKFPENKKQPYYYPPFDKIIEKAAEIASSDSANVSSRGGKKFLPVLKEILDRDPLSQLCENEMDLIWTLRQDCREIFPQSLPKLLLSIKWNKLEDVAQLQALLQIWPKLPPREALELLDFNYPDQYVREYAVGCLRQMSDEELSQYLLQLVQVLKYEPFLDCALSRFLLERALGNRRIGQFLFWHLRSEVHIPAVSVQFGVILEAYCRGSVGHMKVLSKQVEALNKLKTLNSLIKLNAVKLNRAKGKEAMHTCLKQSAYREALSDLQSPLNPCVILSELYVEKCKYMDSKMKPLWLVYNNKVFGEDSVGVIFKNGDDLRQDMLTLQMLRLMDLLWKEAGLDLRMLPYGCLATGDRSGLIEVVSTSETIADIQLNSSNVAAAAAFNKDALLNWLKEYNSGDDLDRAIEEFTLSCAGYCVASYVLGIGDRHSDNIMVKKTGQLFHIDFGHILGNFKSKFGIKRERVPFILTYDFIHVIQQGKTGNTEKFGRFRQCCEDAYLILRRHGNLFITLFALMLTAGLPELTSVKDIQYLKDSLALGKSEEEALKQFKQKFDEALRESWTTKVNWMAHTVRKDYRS
Sequence of PI3Kβ (P27986 whole entry partner): as the sequence (P27986 whole entry partner) above
Sequence of PI3Kγ (P48736 whole entry): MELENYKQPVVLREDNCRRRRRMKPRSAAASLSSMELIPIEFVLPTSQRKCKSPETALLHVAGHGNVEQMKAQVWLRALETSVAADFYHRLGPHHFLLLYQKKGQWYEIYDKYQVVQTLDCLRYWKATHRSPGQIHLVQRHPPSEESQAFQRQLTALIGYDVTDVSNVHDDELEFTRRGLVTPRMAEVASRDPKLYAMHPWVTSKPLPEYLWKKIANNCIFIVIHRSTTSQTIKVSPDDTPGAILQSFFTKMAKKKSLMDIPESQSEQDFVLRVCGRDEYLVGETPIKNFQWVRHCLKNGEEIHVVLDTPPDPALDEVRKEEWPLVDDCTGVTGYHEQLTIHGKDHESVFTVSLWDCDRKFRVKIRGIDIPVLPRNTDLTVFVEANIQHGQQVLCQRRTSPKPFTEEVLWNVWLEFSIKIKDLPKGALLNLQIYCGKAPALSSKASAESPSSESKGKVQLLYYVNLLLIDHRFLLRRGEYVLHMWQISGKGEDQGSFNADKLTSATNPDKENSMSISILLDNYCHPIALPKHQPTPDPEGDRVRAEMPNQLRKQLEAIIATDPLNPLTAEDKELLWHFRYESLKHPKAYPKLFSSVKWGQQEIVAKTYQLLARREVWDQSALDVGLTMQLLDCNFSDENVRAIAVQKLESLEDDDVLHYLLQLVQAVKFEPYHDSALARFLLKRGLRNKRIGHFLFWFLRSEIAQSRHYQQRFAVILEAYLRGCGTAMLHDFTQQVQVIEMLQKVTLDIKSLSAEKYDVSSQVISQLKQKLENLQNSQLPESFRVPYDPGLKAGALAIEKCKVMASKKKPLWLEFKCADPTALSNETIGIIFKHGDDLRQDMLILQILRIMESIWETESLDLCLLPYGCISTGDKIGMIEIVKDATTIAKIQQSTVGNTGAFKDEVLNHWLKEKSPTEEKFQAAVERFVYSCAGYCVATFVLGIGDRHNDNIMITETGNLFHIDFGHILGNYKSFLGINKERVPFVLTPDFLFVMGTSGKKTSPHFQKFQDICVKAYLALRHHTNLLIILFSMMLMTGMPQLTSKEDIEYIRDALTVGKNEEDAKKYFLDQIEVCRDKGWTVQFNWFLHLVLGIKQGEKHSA

In the case of `COc1ncc(-c2nc(N3CCOCC3)nc3c(OC4CCC(N5CCCCC5)CC4)c(C)sc23)cc1NS(C)(=O)=O` (centres unmarked) [Compound 153], the IC50 in experiment [1] came to 11 nM; in experiment [5] it was 0.6 nM. For the same compound, the α/δ selectivity in experiment [2] worked out at 42. In experiment [3], the β/δ selectivity came out at 418. In addition, the γ/δ selectivity in experiment [4] is recorded as above 909.

The IC50 is the concentration at which inhibition is half-maximal.

(Values after patent US9745321B2, “Fused pyrimidine compound, intermediate, preparation method therefor, and composition and application thereof” (SHANGHAI YINGLI PHARMACEUTICAL CO., LTD, priority 2013, dated 2017).)
